# From patent publication US20160129089A1, “COMBINATION THERAPY” (ANTISENSE THERAPEUTICS LTD, priority 2013, published 2016)
# “Also recorded” adds a separate entry of the source. Where two headings read alike, the source gives them in different places. Marks after values point to notes of the source that are not given here.
# Tests used:
# [1] = system: insulin-like growth factor acid-labile subunit (ALS); assay: Phase I trial: exploratory PD, ALS; format: in vivo, human; conditions: for ALS % change from pre-dose / ALS mean change from pre-dose: Stage B, n=6
# Experimental: (§1) As defined in the statistical analysis plan, the effect of ATL1103 on serum IGF-I was assessed as a change in IGF-I levels versus baseline (starting point) readings for those subjects who received treatment (ATL1103). Pre-dose baseline levels of IGF-I were recorded prior to the commencement of dosing and then measured at weekly intervals until the end of the monitoring period. […] Other exploratory objectives of the study investigated the drug's mechanism of action and broader pharmacological profile, including the pharmacodynamic effects on levels of growth hormone binding protein (GHBP), insulin-like growth factor binding protein 3 (IGFBP-3), acid labile subunit of the insulin-like growth factor binding protein complex (ALS), and growth hormone (GH), as well as in vitro mitogenic and apoptotic parameters.
# [2] = system: growth hormone (GH); assay: Phase I trial: exploratory PD, growth hormone levels; format: in vivo, human; conditions: listed as ATL1103
# Experimental: as §1
# [3] = system: serum insulin like growth factor I (IGF-I); assay: Phase II trial in patients with acromegaly: serum IGF-I reduction; format: in vivo, human
# From the text: The primary endpoints or main purposes of the trial were (i) to evaluate the safety and tolerability of ATL1103 in patients with acromegaly, and (ii) to evaluate the single dose and multiple dose pharmacokinetic profiles of ATL1103 via the subcutaneous route in patients with acromegaly.
# [4] = system: insulin-like growth factor binding protein 3 (IGF-BP3); assay: Phase I trial: exploratory PD, IGF-BP3; format: in vivo, human; conditions: for IGF-BP3 % change from pre-dose / IGF-BP3 mean change from pre-dose: Stage B, n=6
# Experimental: as §1
# [5] = system: human growth hormone receptor mRNA; assay: Inhibition of human growth hormone receptor mRNA levels by antisense oligonucleotides, quantitative real-time PCR, MCF7 cells; format: cell-based; set-up: concentration or dose not given beside the values; conditions: averages from three experiments
# [6] = system: insulin-like growth factor II (IGF-II); assay: Phase I trial: exploratory PD, IGF-II; format: in vivo, human; conditions: Stage B, n=6
# [7] = system: liver GHr RNA; assay: Monotherapy and combination mouse study: relative liver GHR RNA; format: in vivo, mice; conditions: week 3, p=0.001
# From the text: (§2) The GHr and IGF-I RNA data were statistically analysed using one-way ANOVA followed by Dunnetts test when comparing treated to saline control. The sIGF-I data were statistically analyzed using one-way […] comparisons.
# [8] = system: growth hormone binding protein (GHBP); assay: Phase I trial: exploratory PD, circulating GHBP; format: in vivo, human; conditions: for GHBP % change from pre-dose / GHBP mean change from pre-dose: Stage B, n=6
# Experimental: as §1
# [9] = human, in vivo
# Experimental: (§3) The primary objective of the Phase I trial was to assess the safety, tolerability and pharmacokinetics (pK) of ATL1103.
# (§4) The Phase I trial was a randomized, placebo controlled, double blind study of single ascending doses and multiple doses of ATL1103 in healthy adult male subjects aged between 18 and 45 years. In the single ascending dose stage of the trial, 24 subjects were administered four dose levels of ATL1103 as a single injection starting at 25 mg and escalating to 75, 250 and 400 mg or placebo. The multiple dose stage was undertaken in 12 subjects, 8 who were to receive six subcutaneous doses of 250 mg of ATL1103 and 4 subjects who received placebo administered on days 1, 3, 5, 7, 14 and 21. Subjects were monitored out to day 35.
# [10] = system: IGF-I; assay: Phase I trial: pharmacodynamic effect on serum IGF-I levels; format: in vivo, human; conditions: for Serum IGF-I change from pre-dose, Mean ± SD / Serum IGF-I % change from pre-dose: n=6
# From the text: A secondary objective of this study was to obtain data on the pharmacodynamic effects of ATL1103 on the IGF-I levels in the blood of the trial subjects. Reduction of increased levels of serum IGF-I to normal is the therapeutic endpoint in the treatment of the growth disorder acromegaly, and reducing the effects of IGF-I has a potential role in the treatment of diabetic retinopathy, nephropathy and certain forms of cancer.
# as §1
# [11] = Phase I trial: safety and tolerability of subcutaneous ATL1103 in healthy adult male subjects
# Experimental: as §3, §4
# [12] = human, in vivo, sc
# From the text: The Phase I trial was a randomized, placebo controlled, double blind study of single ascending doses and multiple doses of ATL1103 in healthy adult male subjects aged between 18 and 45 years. […] Subjects were monitored out to day 35.
# [13] = system: liver IGF-I RNA; assay: Monotherapy and combination mouse study: relative liver IGF-I RNA; format: in vivo, mice; conditions: week 3, p=0.001
# From the text: as §2
# [14] = system: serum IGF-I; assay: Monotherapy and combination mouse study: serum IGF-I; format: in vivo, mice
# From the text: as §2
# [15] = ATL1103 12 mg/kg, 3 times in first week then 2 times weekly
# [16] = ATL1103 25 mg/kg, 2 times weekly, compared to saline control
substance,measurement,setting,value
tcagggcattctttccattc (TCAGGGCATTCTTTCCATTC; chemistry not given here) [ISIS 227452],effect on ALS,[1]; Phase I multiple dose stage,significantly reduced
same,ALS % change from pre-dose,[1]; Day 7,(−5%)
same,ALS mean change from pre-dose,[1]; Day 7,−115.3 mU/ml
same,ALS % change from pre-dose,[1]; Day 21,(−9%)
same,ALS mean change from pre-dose,[1]; Day 21,−160.7 mU/ml
same,ALS % change from pre-dose,[1]; Day 28,(−10%)
same,ALS mean change from pre-dose,[1]; Day 28,−188.7* mU/ml
same,effect on GH levels,[2],no effect; also recorded: No treatment-related effects were apparent in growth hormone levels (data not shown)
same,reduction in mean sIGF-I levels,"[3]; 200 mg per week dose, week 14",no consistent reduction
same,mean reduction in sIGF-I compared to baseline,"[3]; 400 mg per week (twice weekly 200 mg), 4 patients with acromegaly, week 14",30%
same,mean reduction in sIGF-I compared to baseline,"[3]; 400 mg per week, 3 patients with lower body weights (58-83 kg, below 85 kg), approx. 4.8-6.9 mg/kg, week 14",38%
same,range of sIGF-I reduction,"[3]; 400 mg per week, 3 patients with lower body weights, week 14",28-48%
same,time course of sIGF-I (FIG. 1),"[3]; twice weekly 200 mg (400 mg per week), over the dosing period",progressive rate of reduction
same,effect on IGFBP-3,[4]; Phase I multiple dose stage,significantly reduced
same,IGF-BP3 % change from pre-dose,[4]; Day 7,(−10%)
same,IGF-BP3 mean change from pre-dose,[4]; Day 7,−310.5** ng/ml
same,IGF-BP3 % change from pre-dose,[4]; Day 21,(−8%)
same,IGF-BP3 mean change from pre-dose,[4]; Day 21,−228.3* ng/ml
same,IGF-BP3 % change from pre-dose,[4]; Day 28,(−5%)
same,IGF-BP3 mean change from pre-dose,[4]; Day 28,-160.5 ng/mL
same,% INHIB (inhibitory effect on hGHR mRNA levels),[5],79%
same,IGF-II % change from pre-dose,[6]; Day 7,(−14%)
same,IGF-II mean change from pre-dose,[6]; Day 7,−101.8*** ng/ml
same,IGF-II % change from pre-dose,[6]; Day 21,(−8%)
same,IGF-II mean change from pre-dose,[6]; Day 21,-57.5 ng/mL
same,IGF-II % change from pre-dose,[6]; Day 28,(−5%)
same,IGF-II mean change from pre-dose,[6]; Day 28,-29.2 ng/mL
same,reduction of liver GHr RNA,[7]; [15],99%
same,reduction of liver GHr RNA,[7]; [16],99.7%
same,GHBP % change from pre-dose,[8]; Day 7,(0%)
same,GHBP mean change from pre-dose,[8]; Day 7,-31.2 pmol/L
same,GHBP % change from pre-dose,[8]; Day 21,(−16%)
same,GHBP mean change from pre-dose,[8]; Day 21,−169.5** pmol/L
same,GHBP % change from pre-dose,[8]; Day 28,(−19%)
same,GHBP mean change from pre-dose,[8]; Day 28,−233.3* pmol/L
same,reduction of GHBP,"[8]; day 21, p=0.007",16%
same,reduction of GHBP,"[8]; day 28, one week past the last dose, p<0.05",19%
same,"injection site reactions, number of events",[9],adverse events were injection site reactions (13).
same,number of treatment-emergent adverse events (TEAE),[9],There were 24 treatment-emergent adverse events (TEAE) in Stage A (19 in the 16 ATL1103-treated
same,overall safety and tolerability,[9],ATL1103 was considered safe and generally well tolerated at the doses used in the study
same,"pain at injection site, number of events",[9],"treated subjects most common adverse events reported were pain at injection site (6), headache"
same,severity of TEAE,[9],"subjects, 5 in the 8 placebo-treated subjects), all reported as mild or moderate. In the ATL1103-"
same,severity of all adverse events,[9],mild to moderate
same,"Serum IGF-I change from pre-dose, Mean ± SD","[10]; Stage B, 250 mg multiple dose, Day 3",+2.65 ± 9.47 nmol/L
same,trend of serum IGF-I levels versus baseline,"[10]; Stage B, from day 14 on, listed as ATL1103","trend in reduction in IGF-I levels from day 14 to day 28; also recorded: For IGF-I there was a clear trend for mean levels to be lower than baseline on days D14, 21, 28, 35 of"
same,Serum IGF-I % change from pre-dose,"[10]; Stage B, Day 3",12%
same,Serum IGF-I % change from pre-dose,"[10]; Stage B, Day 5",6%
same,"Serum IGF-I change from pre-dose, Mean ± SD","[10]; Stage B, Day 5",+0.32 ± 7.42 nmol/L
same,Serum IGF-I % change from pre-dose,"[10]; Stage B, Day 7",6%
same,"Serum IGF-I change from pre-dose, Mean ± SD","[10]; Stage B, Day 7",+0.77 ± 7.51 nmol/L
same,Serum IGF-I % change from pre-dose,"[10]; Stage B, Day 14",−2%
same,"Serum IGF-I change from pre-dose, Mean ± SD","[10]; Stage B, Day 14",-1.43 ± 7.19 nmol/L
same,Serum IGF-I % change from pre-dose,"[10]; Stage B, Day 21",−7%
same,"Serum IGF-I change from pre-dose, Mean ± SD","[10]; Stage B, Day 21",-3.40 ± 3.59 nmol/L
same,Serum IGF-I % change from pre-dose,"[10]; Stage B, Day 28",−7%
same,"Serum IGF-I change from pre-dose, Mean ± SD","[10]; Stage B, Day 28",-3.43 ± 7.53 nmol/L
same,Serum IGF-I % change from pre-dose,"[10]; Stage B, Day 35",−1%
same,"Serum IGF-I change from pre-dose, Mean ± SD","[10]; Stage B, Day 35",-1.9 ± 5.08 nmol/L
same,reduction in mean IGF-I levels versus baseline,"[10]; day 21, p=0.034 one sided t-test",7%
same,"headache, number of events","[11]; Stage A, ATL1103-treated subjects",5
same,"influenza-like illness, number of events","[11]; Stage A, ATL1103-treated subjects (after single doses of 400 mg)",2
same,influenza-like illness,[11]; after repeated doses of 250 mg,"single doses of 400 mg ATL1103, this was not seen after repeated doses of 250 mg."
same,AUClast,[12]; 25 mg,3711 ± 822 ng·h/mL
same,Cmax,[12]; 25 mg,466 ± 136 ng/mL
same,Tmax,[12]; 25 mg,3.25 ± 0.5 h
same,AUClast,[12]; 75 mg,21342 ± 4755 ng·h/mL
same,Cmax,[12]; 75 mg,3139 ± 1576 ng/mL
same,Tmax,[12]; 75 mg,3.25 ± 0.96 h
same,AUClast,[12]; 250 mg,88942 ± 11295 ng·h/mL
same,Cmax,[12]; 250 mg,12383 ± 3000 ng/mL
same,Tmax,[12]; 250 mg,2.5 ± 1.29 h
same,AUClast,[12]; 400 mg,151123 ± 29434 ng·h/mL
same,Cmax,[12]; 400 mg,14343 ± 2823 ng/mL
same,Tmax,[12]; 400 mg,3.25 ± 0.96 h
same,reduction of liver IGF-I RNA,[13]; [15],64.3%
same,reduction of liver IGF-I RNA,[13]; [16],76.2%
same,reduction of sIGF-I,"[14]; ATL1103 25 mg/kg 2 times weekly monotherapy, week 1, compared to baseline control levels, p<0.013",25%
same,reduction of sIGF-I,"[14]; ATL1103 25 mg/kg, 2 times weekly, week 1, compared to control saline, p=0.0070",36.5%
same,reduction of sIGF-I,"[14]; ATL1103 25 mg/kg, 2 times weekly, week 2, compared to control saline, p=0.004",41.5%
same,reduction of serum IGF-I,"[14]; ATL1103 25 mg/kg, 2 times weekly, week 3, compared to saline control, p=0.003",44.5%
